Assay [1] addresses Dual 3',5'-cyclic-AMP and -GMP phosphodiesterase 11A (Homo sapiens, UniProt Q9HCR9). Kind of assay: Caliper Mobility-Shift Assay: To a 96-well plate, 20 μL of 10 μM FL-cGMP as the substrate was added; then 1 μL solution of the compound in DMSO or DMSO solution without compound was added; and then 29 μL of 0.28 ng/μL PDE-11 enzyme buffer (100 mM Hepes pH 7.5, 5 mM MgCl2, 0.002% Brij-35) was added. The maximum final concentration of the compound was 10 μM. The plate was incubated at 30° C. for 1 h, and 20 μL of 70 μM EDTA was then added to stop the reaction. 26 μL of solution of each well was transferred to a 384-well plate.

Assay [2] addresses cGMP-specific 3',5'-cyclic phosphodiesterase (Homo sapiens, UniProt O76074). The experiment in a line: The maximum final concentration of the compound was 10 μM. The plate was incubated at 30° C. for 1 h, and 20 μL of 70 μM EDTA was then added to stop the reaction. 26 μL of solution of each well was transferred to a 384-well plate.

Molecules are shown by their SMILES. Where only a bound is given, the exact number is not on record here.

Dual 3',5'-cyclic-AMP and -GMP phosphodiesterase 11A, sequence (Q9HCR9 whole entry): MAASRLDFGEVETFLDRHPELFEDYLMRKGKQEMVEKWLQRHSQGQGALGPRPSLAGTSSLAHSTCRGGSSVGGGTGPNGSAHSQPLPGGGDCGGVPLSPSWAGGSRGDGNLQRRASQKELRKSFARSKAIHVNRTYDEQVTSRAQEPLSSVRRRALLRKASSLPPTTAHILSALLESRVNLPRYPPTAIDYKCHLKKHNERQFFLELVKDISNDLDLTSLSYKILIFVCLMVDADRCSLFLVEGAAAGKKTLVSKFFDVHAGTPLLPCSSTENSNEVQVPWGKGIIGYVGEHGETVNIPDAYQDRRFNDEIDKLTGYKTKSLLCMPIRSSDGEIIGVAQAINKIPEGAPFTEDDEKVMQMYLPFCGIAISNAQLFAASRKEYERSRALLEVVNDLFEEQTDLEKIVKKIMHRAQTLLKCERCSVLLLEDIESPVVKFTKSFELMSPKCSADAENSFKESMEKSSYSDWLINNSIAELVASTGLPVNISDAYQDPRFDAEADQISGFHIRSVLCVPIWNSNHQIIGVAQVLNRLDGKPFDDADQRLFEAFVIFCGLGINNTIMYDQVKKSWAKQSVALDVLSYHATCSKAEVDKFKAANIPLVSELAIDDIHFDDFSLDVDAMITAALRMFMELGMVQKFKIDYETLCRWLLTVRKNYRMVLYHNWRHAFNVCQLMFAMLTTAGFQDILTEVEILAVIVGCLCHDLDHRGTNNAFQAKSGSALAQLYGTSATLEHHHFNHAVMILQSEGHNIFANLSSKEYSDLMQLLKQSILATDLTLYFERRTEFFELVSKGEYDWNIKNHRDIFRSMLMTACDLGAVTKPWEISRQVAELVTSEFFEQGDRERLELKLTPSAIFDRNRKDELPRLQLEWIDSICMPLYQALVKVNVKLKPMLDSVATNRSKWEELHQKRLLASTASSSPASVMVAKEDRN

By IC50 is commonly meant the midpoint of a concentration-inhibition curve. As to `COc1ccc(CNc2nc(N3CC4CC4C3)ncc2C(=O)NCc2ccccn2)cc1Cl` (configuration not stated), the results for the half-maximal inhibitory concentration (IC50) in assay [1] and in assay [2] were more than 10000 nM and 2.12 nM, respectively.
